Values joined by “and” are separate entries in the source; they are usually repeats but may differ in a detail not shown here. Equal values may be shown once.
Tests used:
SK-HEP-1 cells [1] = assay: Protection of endothelial cells from H2O2-induced cell death (MTS assay); format: cell-based, human; design: key to Cell viability (MTS assay): cell viability as % survival; conditions: for Cell viability (MTS assay): SK-HEP-1, n = 6 replicates
Method: The effect of increasing concentrations of NACCbl and GSCbl to protect endothelial cells from the effect of H2O2 was assessed. […] Cell viability was determined by MTS® assay. […] FIG. 3 illustrates that NACCbl and GSCbl protect endothelial cells from the effect of H2O2. […] Cell viability was determined by MTS® assay. […] There was no difference between the protection afforded by NACCbl and that by GSCbl. Both required 100 μM to achieve >80% survival.

SK-HEP-1 cells [2] = assay: Protection from homocysteine-induced apoptosis, Caspase-3 activity (apoptosis assay); format: cell-based, human; conditions: 30 μM two hours, then 30 μM homocysteine two hours
Method: Caspase 3 is activated when cells undergo apoptosis. Caspase-3 assay is a standard for apoptosis assay. Homocysteine is a known inducer of apoptosis. Cells were cultured in 96-well plates for 24 hours and then treated with reagents under test conditions. Cytotoxic agents, H2O2 and etoposide were added to negative control wells. The assay was performed according to the manufacturer's protocol, as follows: Cells were re-suspended in 100 μl of clear media and 50 μl of Caspase-3 substrate solution was immediately added to each test well. […] Cell viability was determined by MTS® assay. […] Cell viability was determined by MTS® assay.

methionine synthase = target: T1, methionine synthase (Oryctolagus cuniculus, UniProt G1SXW3); conditions: rabbit spleen extracts; cited from earlier work
T1 construct: methionine synthase activity in rabbit spleen extracts; from tissue; host or cells: rabbit spleen extract
T1 sequence (G1SXW3 1-1218): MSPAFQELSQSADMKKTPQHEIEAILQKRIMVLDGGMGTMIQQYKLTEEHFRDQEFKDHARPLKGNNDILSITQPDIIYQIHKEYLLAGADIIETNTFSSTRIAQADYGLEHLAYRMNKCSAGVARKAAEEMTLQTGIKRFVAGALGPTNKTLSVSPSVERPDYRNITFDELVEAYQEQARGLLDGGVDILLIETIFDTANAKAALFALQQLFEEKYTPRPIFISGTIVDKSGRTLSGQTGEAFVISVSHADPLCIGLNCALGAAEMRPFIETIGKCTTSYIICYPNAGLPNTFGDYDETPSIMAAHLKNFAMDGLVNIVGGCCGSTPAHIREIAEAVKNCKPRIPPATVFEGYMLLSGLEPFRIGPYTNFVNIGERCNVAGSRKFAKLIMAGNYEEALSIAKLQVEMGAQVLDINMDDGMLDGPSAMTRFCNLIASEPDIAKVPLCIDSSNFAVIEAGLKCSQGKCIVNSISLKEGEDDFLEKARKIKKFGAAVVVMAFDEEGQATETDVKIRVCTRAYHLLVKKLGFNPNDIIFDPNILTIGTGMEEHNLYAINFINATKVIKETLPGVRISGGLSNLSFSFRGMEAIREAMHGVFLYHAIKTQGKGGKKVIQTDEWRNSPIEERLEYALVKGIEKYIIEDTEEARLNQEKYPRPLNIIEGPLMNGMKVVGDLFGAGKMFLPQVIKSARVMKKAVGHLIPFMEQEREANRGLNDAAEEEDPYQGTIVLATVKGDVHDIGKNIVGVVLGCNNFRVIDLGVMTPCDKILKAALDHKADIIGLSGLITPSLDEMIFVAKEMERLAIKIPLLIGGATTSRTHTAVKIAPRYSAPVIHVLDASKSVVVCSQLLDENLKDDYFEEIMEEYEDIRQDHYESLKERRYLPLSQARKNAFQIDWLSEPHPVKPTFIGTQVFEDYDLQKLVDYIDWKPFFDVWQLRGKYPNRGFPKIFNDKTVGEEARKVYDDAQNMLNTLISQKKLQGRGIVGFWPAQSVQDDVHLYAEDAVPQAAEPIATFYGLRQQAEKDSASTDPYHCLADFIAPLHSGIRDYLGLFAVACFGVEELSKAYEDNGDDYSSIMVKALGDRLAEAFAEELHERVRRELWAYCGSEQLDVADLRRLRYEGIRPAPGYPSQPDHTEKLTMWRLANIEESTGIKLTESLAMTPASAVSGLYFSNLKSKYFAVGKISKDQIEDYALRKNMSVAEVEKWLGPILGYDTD

SK-HEP-1 cells [3] = assay: Protection of endothelial cells from H2O2-induced cell death (MTS assay); format: cell-based, human; design: key to Cell viability (MTS assay): cell viability as % survival; conditions: SK-HEP-1, n = 6 replicates
SK-HEP-1 cells [4] = assay: Effect of high concentrations of NACCbl and GSCbl on SK-HEP-1 cells (MTS assay, 24 hours); format: cell-based, human; conditions: for Cell viability by MTS assay (FIG. 13): SK-HEP-1, 3 replicates
[5] = Decomposition in PBS at 37° C. monitored by UV/Vis spectrophotometry; format: physicochemical
Method: The decomposition of GSCbl, NACCbl, and HcyCbl in PBS at 37° C. was monitored by UV/Vis spectrophotometry.

Hsp32 = Hsp32 gene expression (RT-PCR, densitometry); format: cell-based, human; conditions: SK-HEP-1; Sn (IX) protoporphyrin 25 μM; Quercitin 15 μM
Method: Cells were plated into 6-, 12-, or 24-well cell culture clusters, at 2×10^3, 2×10^5, or 1×10^5 cells per well and incubated until 90% confluent. Treatments were applied as above.
Following incubation, cells were subjected to mRNA extraction followed by cDNA synthesis for each sample under test. Polymerase chain reaction cDNA templates were prepared for simplex PCR protocol. PCR products were then visualized using a UV Transilluminator and images captured using a Kodak ID gel imaging system. Densitometry and statistical analysis was then performed on each gene expression band image using PSP® v 10.0 running under Windows XP®.
mRNA extraction was performed using the Quickprep micro mRNA Purification Kit. Following incubation of cells post-treatment, the media was removed from the cells, adherent cells were re-suspended in 0.4 ml extraction buffer and 0.8 ml elution buffer at 65° C. was added.
A reaction mixture was prepared in individual microcentrifuge tubes containing 2 cDNA synthesis beads, 32 μl of the mRNA solution and 1 μl of pd(N)6. This mixture was incubated at 37° C. in a water bath for 60 minutes. After incubation, 27 μl of RNase-free DEPC treated water was added to each tube to make a total volume 60 μl. cDNA samples were prepared in duplicate. Sample 1 was used immediately in RT-PCR protocol. Sample 2 was prepared for qPCR protocol by the addition of 150 μl of 95% ice-cold ethanol and stored at −20° C.
Microcentrifuge tubes from puReTaq™Ready-To-Go™ PCR Beads containing one PCR bead were labeled for each sample required. Added to the PCR bead were 17 μl of RNase-free DEPC treated water, 1 μl sense primer, 1 μl anti-sense primer and 5 μl of the cDNA solution. RT-PCR conditions were as follows: Hsp70 and β-actin, pre-treatment step, 94° C. for 1 minute, followed by denaturing at 92° C. for 1 minute, annealing at 60° C. for 1 minute and extension at 72° C. for 1 minute. Total cycles, 30, post-treatment was then carried out at 72° C. for 10 minutes. For Hsp32, pre-treatment step, 95° C. for 2 minutes, followed by denaturing at 94° C. for 30 seconds, annealing at 58° C. for 1 minute and extension at 72° C. for 1 minute. Total cycles 45, post treatment was then carried out at 72° C. for 10 minutes. Following RT-PCR, samples were stored at −20° C.
Gels were visualised on a UV Transilluminator. Photographs were stored using a Kodak Digital camera system fitted with a UV filter set connected to a PC. Images were then transferred to the Kodak ID gel imaging system. Densitometry was performed on each gene expression band using PSP™ v10 running under Windows XP®.
Experiments were conducted using Hsp32 and Hsp 70 gene expression as the basis for study. […] The densitometric data are presented as means ±SEM of n=3 separate experiments. *p<0.05 or **p<0.01, treatment vs. control.

SK-HEP-1 cells [6] = assay: Protection of endothelial cells from homocysteine-induced cell death (MTS assay); format: cell-based, human
Method: The effect of a constant concentration of NACCbl and GSCbl to protect cells against variable concentrations of homocysteine was assessed. […] Cell viability was determined by MTS® assay. Data shown in FIG. 4 are representative of means ±SE of 6 independent samples. FIG. 4 illustrates that NACCbl (▪) and GSCbl (▴) protect endothelial cells from the effect of homocysteine. […] Cell viability was determined by MTS® assay. […] There was a decrease in protection as homocysteine concentration increased, but there was still ˜60% survival at 50 μM homocysteine.
The data was normalized (log 2 and log 10) as shown in FIGS. 16 and 17 and Tables 16 and 17, respectively, below.

SK-HEP-1 cells [7] = conditions: 12.5 µM
SK-HEP-1 cells [8] = assay: Effect of homocysteine and H2O2 on endothelial cell viability (MTS assay); conditions: for Cell viability (MTS assay): SK-HEP-1, 2 hours, n = 6 replicates
in vitro = conditions: human, SK-HEP-1 cells

Structure (SMILES): C/C1=C2N=C(/C=C3N=C(/C(C)=C4\[N-]C(C(CC(N)=O)C4(C)CCC(=O)NCC(C)OP(=O)([O-])OC4C(CO)OC(n5cnc6cc(C)c(C)cc65)C4O)C4(C)N=C1C(CCC(N)=O)C4(C)CC(N)=O)C(CCC(N)=O)C\3(C)C)C(CCC(N)=O)C/2(C)CC(N)=O.NC(CCC(=O)NC(C[S-])C(=O)NCC(=O)O)C(=O)O.[Co+3] (centres unmarked) [GSCbl, Glutathionylcobalamin]
- Difference between protection by NACCbl and by GSCbl (SK-HEP-1 cells [1]; 25 μM H2O2 24 hours): no difference
- Concentration required to achieve >80% survival (SK-HEP-1 cells [1]; 2 hours, then 25 μM H2O2 24 hours): 100 µM
- Protection from H2O2 (SK-HEP-1 cells [1]; GSCbl 30 μM, above 7.5 μM H2O2): did not provide significant protection
- Cell viability (MTS assay) (SK-HEP-1 cells [1]; compound 30 μM two hours, then H2O2 200 μM a further two hours): 1.326 and 7.153 and 3.6 and 1.942 and 5.921 and 0.7579
- Cell viability (MTS assay) (SK-HEP-1 cells [1]; compound concentration 6.25, 2 hours, then 25 μM H2O2 24 hours): 48.68 and 56.26 and 45.98 and 43.35 and 42.09 and 41.96
- Cell viability (MTS assay) (SK-HEP-1 cells [1]; compound concentration 12.5, 2 hours, then 25 μM H2O2 24 hours): 44.27 and 54.35 and 50.53 and 47.04 and 44.14 and 42.09
- Cell viability (MTS assay) (SK-HEP-1 cells [1]; compound concentration 25, 2 hours, then 25 μM H2O2 24 hours): 41.24 and 45.5863 and 42.23 and 45.26 and 41.7 and 44.99
- Cell viability (MTS assay) (SK-HEP-1 cells [1]; compound concentration 100, 2 hours, then 25 μM H2O2 24 hours): 64.62 (2×) and 77.87 and 71.61 and 72.6 and 76.5481
- Cell viability (MTS assay) (SK-HEP-1 cells [1]; compound concentration 200, 2 hours, then 25 μM H2O2 24 hours): 94.07 and 100.0659 and 102.8327 and 93.87 and 105.5995 and 94.73
- Protection against apoptosis induced by homocysteine (SK-HEP-1 cells [2]): total protection
- Promotion of methionine synthase activity (methionine synthase): more active than other cobalamins
- Cell viability (MTS assay) (SK-HEP-1 cells [3]; compound 30 μM two hours, then H2O2 0 μM): 99.24 and 102.2264 and 105.5898 and 103.6002 and 104.0265 and 104.5476
- Cell viability (MTS assay) (SK-HEP-1 cells [3]; compound 30 μM two hours, then H2O2 0.781 μM a further two hours): 96.12 and 98.39 and 97.3946 and 98.0578 and 96.02 and 95.31
- Cell viability (MTS assay) (SK-HEP-1 cells [3]; compound 30 μM two hours, then H2O2 1.56 μM a further two hours): 93.56 and 90.81 (2×) and 92.33 and 88.25 and 91.8522
- Cell viability (MTS assay) (SK-HEP-1 cells [3]; compound 30 μM two hours, then H2O2 3.125 μM a further two hours): 40.31 and 91.33 and 87.3046 and 82.33 and 79.77 and 77.59
- Cell viability (MTS assay) (SK-HEP-1 cells [3]; compound 30 μM two hours, then H2O2 6.25 μM a further two hours): 36.52 and 39.7442 and 34.49 and 34.72 and 34.86 and 36.1
- Cell viability (MTS assay) (SK-HEP-1 cells [3]; compound 30 μM two hours, then H2O2 12.5 μM a further two hours): 29.7963 and 32.02 and 36.1 and 32.4 and 29.99 and 33.92
- Cell viability (MTS assay) (SK-HEP-1 cells [3]; compound 30 μM two hours, then H2O2 25 μM a further two hours): 23.54 and 26.53 and 22.93 and 24.44 and 22.03 and 20.42
- Cell viability (MTS assay) (SK-HEP-1 cells [3]; compound 30 μM two hours, then H2O2 50 μM a further two hours): 15.02 and 20.8432 and 18.95 and 13.12 and 15.6324 and 17.62
- Cell viability (MTS assay) (SK-HEP-1 cells [3]; compound 30 μM two hours, then H2O2 100 μM a further two hours): 10.8 and 12.36 and 11.5585 and 9.995 and 6.679 and 8.527
- Cell viability (MTS assay) (SK-HEP-1 cells [3]; compound concentration 3.125, 2 hours, then 25 μM H2O2 24 hours): 20.88 and 30.9 and 21.34 and 26.8116
- Cell viability (MTS assay) (SK-HEP-1 cells [3]; compound concentration 50, 2 hours, then 25 μM H2O2 24 hours): 42.69 and 45.72 and 48.16 and 46.9 and 46.77 and 51.84
- Cell viability by MTS assay (FIG. 13) (SK-HEP-1 cells [4]; compound conc. 0.61, 24 hours): 2.554 and 2.376 and 2.53
- Cell viability by MTS assay (FIG. 13) (SK-HEP-1 cells [4]; compound conc. 1.22, 24 hours): 2.347 and 2.433 and 2.503
- Cell viability by MTS assay (FIG. 13) (SK-HEP-1 cells [4]; compound conc. 2.441, 24 hours): 2.527 and 2.434 and 2.46
- Cell viability by MTS assay (FIG. 13) (SK-HEP-1 cells [4]; compound conc. 4.882, 24 hours): 2.543 and 2.528 and 2.519
- Cell viability by MTS assay (FIG. 13) (SK-HEP-1 cells [4]; compound conc. 9.765, 24 hours): 2.532 and 2.476 and 2.42
- Cell viability by MTS assay (FIG. 13) (SK-HEP-1 cells [4]; compound conc. 19.531, 24 hours): 2.553 and 2.476 and 2.42
- Cell viability by MTS assay (FIG. 13) (SK-HEP-1 cells [4]; compound conc. 39.062, 24 hours): 2.492 and 2.484 and 2.468
- Cell viability by MTS assay (FIG. 13) (SK-HEP-1 cells [4]; compound conc. 78.125, 24 hours): 2.444 and 2.406 and 2.402
- Cell viability by MTS assay (FIG. 13) (SK-HEP-1 cells [4]; compound conc. 156.25, 24 hours): 2.407 and 2.37 and 2.318
- Cell viability by MTS assay (FIG. 13) (SK-HEP-1 cells [4]; compound conc. 312.5, 24 hours): 2.306 and 2.204 and 2.138
- Cell viability by MTS assay (FIG. 13) (SK-HEP-1 cells [4]; compound conc. 625, 24 hours): 2.197 and 1.912 and 1.787
- Cell viability by MTS assay (FIG. 13) (SK-HEP-1 cells [4]; compound conc. 1250, 24 hours): 1.973 and 1.846 and 1.71
- Cell viability by MTS assay (FIG. 13) (SK-HEP-1 cells [4]; compound conc. 2500, 24 hours): 1.775 and 1.81 and 1.896
- Cell viability by MTS assay (FIG. 13) (SK-HEP-1 cells [4]; compound conc. 5000, 24 hours): 1.728 and 1.67 and 1.623
- Cell viability by MTS assay (FIG. 13) (SK-HEP-1 cells [4]; compound conc. 10000, 24 hours): 1.322 and 1.342 and 1.366
- Cell death compared with NACCbl (SK-HEP-1 cells [4]; above 0.2 mM concentration): caused greater cell death than NACCbl
- t1/2 [5]: No decomposition within 20 hours
- Hsp32 gene expression (Hsp32): induce Hsp32
- Concentration required for >80% survival protection (SK-HEP-1 cells [6]; 2 hours, then 30 μM homocysteine 24 hours): 50 µM
- Protection against homocysteine-induced damage compared with free thiols (SK-HEP-1 cells [6]; Hcy 30 μM, NAC 45 μM, GSH 100 μM, NACCbl 12.5 μM, GSCbl 15 μM): superior to the free thiols
- Mean (FIG. 14a, protection of SK-HEP-1 cells from Hcy in the presence of folate) (SK-HEP-1 cells [6]; [Hcy] 30 μM, folate 25 μM present, [GSCbl] = 15 μM, [NACCbl] = 12.5 μM, [CNCbl] = 15 μM, [MeCbl] = 12.5 μM, [HOCbl] = 17.5 μM, [NAC] = 45 μM, [GSH] = 100 μM): 2.524
- Survival (SK-HEP-1 cells [6]; compound 30 μM, 50 μM homocysteine): ~60%
- Protection from homocysteine-induced cell death (SK-HEP-1 cells [6]; pre-incubation 30 μM two hours, variable homocysteine two hours): protected cells from homocysteine-induced cell death

Structure (SMILES): OO [H2O2, Hydrogen peroxide]
- viability (SK-HEP-1 cells [7]): 11.3% and 10.1% and 11.8% and 11.7% and 12.4%
- Concentration achieving greater than 90% death (<10% survival) (SK-HEP-1 cells [8]; SK-HEP-1, 2 hours): 12.5 µM
- Concentration sufficient to kill cultured endothelial cells (SK-HEP-1 cells [8]; SK-HEP-1, 2 hours, P<0.001): ≥ 3 μm
- Cell viability (MTS assay) (SK-HEP-1 cells [8]; 0.781 μM): 102.4429 and 98.07 and 98.74 and 102.3076 and 99.02
- Cell viability (MTS assay) (SK-HEP-1 cells [8]; 1.562 μM): 96.08 and 96.67 and 98.97 and 85.98
- Cell viability (MTS assay) (SK-HEP-1 cells [8]; 3.125 μM): 46.88 and 52.02 and 50.62 and 52.38 and 82.7345 and 84.54
- Cell viability (MTS assay) (SK-HEP-1 cells [8]; 6.25 μM): 33.89 and 32.31 and 35.2 and 32.54 and 30.46
- Cell viability (MTS assay) (SK-HEP-1 cells [8]; 25 μM): 3.63 (2×) and 3.225 and 3.27 and 3.585
- Cell viability (MTS assay) (SK-HEP-1 cells [8]; 50 μM): 0.4284 and 0.06765 and 0.4735
- viability at 2 h, 0.781 µM (in vitro): 99.4%
- viability at 2 h, 1.562 µM (in vitro): 96.4%
- viability at 2 h, 6.25 µM (in vitro): 32.6%
- viability at 2 h, 12.5 µM (in vitro): 12.4%
- viability at 2 h, 25 µM (in vitro): 3.18%
